Literature values in patent US20230192588A1, “CANNABIDIOLIC ACID (CBDA) DERIVATIVES AND USES THEREOF” (YISSUM RESEARCH DEVELOPMENT COMPANY OF THE HEBREW …, priority 2020, published 2023).

What was measured:
rats [1] = conditions: compared to CBDA, 5-HT1A receptor-dependent manner
rat models = conditions: oral ingestion of a low dose (1 mg/kg); two rat models
rats [2] = conditions: compared to CBDA, 5-HT1A receptor-dependent manner; remark: listed apart in the source

C=C(C)[C@@H]1CCC(C)=C[C@H]1c1c(O)cc(CCCCC)c(C(=O)OC)c1O [HU-580, cannabidiolic acid methyl ester]
potency in suppressing signs of both acute and anticipatory nausea (rats [1]): greater potency than CBDA | anti-depressant effect (rat models): potent anti-depressant effect | potency in suppressing signs of stress-induced anxiety (rats [2]): greater potency than CBDA
